Assays:
[1] = test system: TGFβ1-induced human primary hepatic stellate cells (hHSC), α-SMA; test: α-SMA ELISA in TGFβ1-activated hHSC (in vitro model of hepatic fibrogenesis), synergy by Excess Over Bliss; format: cell-based; details: TGFβ1 1 ng/ml, 48 h
Description: The human primary hepatic stellate cells (hHSC) (Innoprot) were cultured in STeCM medium (ScienCell cat #5301) supplemented with 2% fetal bovine serum (FBS, ScienCell cat #0010), 1% penicillin/streptomycin (ScienCell cat #0503) and stellate cell growth supplement (SteCGS; ScienCell cat #5352). Cell-culture flasks were coated with Poly-L Lysine (Sigma cat # P4707) for a better adherence.
The FXR agonist INT-767 (CAS #1000403-03-1, Cat # HY-12434, batch #19249) was obtained commercially from Haoyuan Chemexpress. For these experiments, a checkerboard matrix was generated. […]
The level of α-SMA was measured using a Sandwich ELISA. […]
The values obtained in the αSMA ELISA assays were first transformed into percentage inhibitions over TGF-β1 control. Then, using these percentage inhibitions, EOB (Excess Over Bliss) was determined to define the synergistic effects of drug combinations. Expected Bliss additivism score (E) was firstly determined by the equation: […]
For the combinations INT-767/Elafibranor, an additional total Bliss score was calculated by summation of all EOB. […]
The significance of the observed differences between INT-767/Elafibranor over the highest single agent was determined by a student's t-test. *: p<0.05; **: p<0.01; ***: p<0.001.

[2] = test system: genes involved in tissue remodeling and inflammation (αSMA (ACTA2), TIMP1, TGFB1, CCR5) in CDAA/chol fed rat livers; test: Hepatic gene expression analysis (quantitative PCR) in CDAA+1% cholesterol model; format: in vivo, Wistar rats; details: liver; Percentage over the untreated CDAA + 1% cholesterol rats; 12 weeks; GFT505 3 mg/kg/d, OCA 10 mg/kg/d, or GFT505 + OCA
Description: (§1) The preventive effects of Elafibranor (GFT505) alone, OCA alone and the combination of both were assessed in a fibrosing NASH-model of rats fed a CDAA+1% cholesterol diet. 150-175 g male Wistar rats were fed a control (CSAA) diet, CDAA+1% cholesterol diet, or CDAA+1% cholesterol diet supplemented with Elafibranor 1, 3 and 10 mg/kg/day, OCA 10 and 30 mg/kg/day or combined drugs (Elafibranor 1, 3 and 10 mg/kg/day combined to OCA 10 mg/kg/day) for 12 weeks.
(§2) The body weight and the food intake were monitored twice per week. On the last day of treatment, rats were sacrificed after a 6 h fasting period. The liver was rapidly excised for biochemical and histological studies.
Total RNA was isolated from rat livers using RNeasy Mini Kit (Qiagen) following manufacturer's instructions. Total RNA were reverse transcribed into cDNA using M-MLV RT (Moloney Murine Leukemia Virus Reverse Transcriptase) (Invitrogen cat #28025) in 1× RT buffer (Invitrogen), 0.5 mM DTT (Invitrogen), 0.18 mM dNTPs (Promega), 200 ng pdN6 (Amersham) and 30 U of RNase inhibitor (Promega).
Quantitative PCR was then carried out using the CFX96 Touch™ Real-Time PCR Detection System (Biorad). Briefly, the PCR reactions were performed in 96-WP format in 25 μl of total volume containing 1 μL of reverse transcription reaction, 0.5 μL of reverse and forward primers (10 pmol each), and 12.5 μl of 2× iQ SYBR Green Supermix (BioRad), using the following primer sequences:
Expression levels were normalized using the expression of Rplp0 gene as a reference in samples. For each gene, the standard curves were drawn by selecting the best points (at least three points) in order to have PCR reaction efficiency close to 100% and a correlation coefficient close to 1. Expression levels were determined using the standard curve equation for both the housekeeping gene and the target gene (taking into account the specific PCR efficiency of each target gene).

[3] = test system: fibrosing NASH-model of rats fed a CDAA+1% cholesterol diet; test: Hepatic collagen content (hydroxyproline, QuickZyme) in CDAA+1% cholesterol model; format: in vivo, Wistar rats; details: Percentage over the untreated CDAA + 1% cholesterol rats; 12 weeks; GFT505 3 mg/kg/d, OCA 10 mg/kg/d, or GFT505 + OCA; mean ± SD
Description: as §1, §2
The hepatic collagen content was determined using the appropriate QuickZyme kit (Total collagen assay, cat # QZB-totcol2). The assay is based on the detection of hydroxyproline, which is a non-proteinogenic amino acid mainly found in the triple helix of collagen. Thus, hydroxyproline in tissue hydrolysates can be used as a direct measure of the amount of collagen present in the tissue (without discrimination between procollagen, mature collagen and collagen degradation products). Complete hydrolysis of tissue samples in 6M HCl at 95° C. is required before dosing the hydroxyproline. The assay results in the generation of a chromogen with a maximum absorbance at 570 nm. Results are expressed as mg of collagen/g of liver.

[4] = test system: fibrosing NASH-model of rats fed a CDAA+1% cholesterol diet; test: Liver histology (picrosirius fibrosis surface, NASH lesions) in chronic CDAA+1% cholesterol model (12 weeks); format: in vivo, Wistar rats
Description: as §1, §2
The liver slices were first fixed for 12 hours in formalin 4% solution. Then, the liver pieces were washed 30 minutes in PBS, and dehydrated in ethanol solutions (successive baths at 70, 80, 95 and 100% ethanol). The liver pieces were incubated in three different baths of Xylene (Sigma-Aldrich cat #534056), followed by two baths in liquid paraffin (56° C.). Liver pieces were then put into racks that were gently filled with Histowax® to completely cover the tissue. The paraffin blocks containing the tissue pieces were removed from the racks and stored at room temperature. The liver blocks were cut into […] slices.
Liver sections were deparaffinized, rehydrated and incubated for 15 minutes in a solution of Fast Green FCF 0.1% (Sigma-Aldrich, cat # F7258) before rinsing in a bath of 0.5% acetic acid (Panreac, cat #131008.1611). […]
A technician blinded to the source of each liver specimen performed histological examinations. […] Briefly, steatosis, lobular inflammation and hepatocytes ballooning were scored. […]
Using Quant Center software (3D Histech, including Pattern Quant and Histo Quant modules), collagen-stained areas were quantified. […] The fibrosis area was then expressed as the percentage of the collagen surface to the whole tissue per animal.

Row | Structure (SMILES) | antifibrotic activity (α-SMA inhibition), in words ([1]; 1.9 μM of INT-767 alone) | inhibition at 30 µM ([1]; Homo sapiens, highest dose of INT-767 tested, 30 μM, read-out: α-SMA production inhibition over TGFβ1 control) [%] | CCR5 mRNA level (marker of inflammation) [2] | TGFβ1 mRNA level [2] | TIMP1 mRNA level [2] | α-SMA mRNA level [2] | Hepatic collagen content [3] | effects on ballooning and lobular inflammation, in words ([4]; CDAA/chol diet-induced NASH model) | effect on fibrosis development, in words (FIGS. 1-2) ([4]; CDAA/chol fed rats, 12 weeks, fibrosis surface and hepatic collagen) | Fibrosis surface ([4]; Percentage over the untreated CDAA + 1% cholesterol rats, 12 weeks in diet, GFT505 3 mg/kg/d, OCA 10 mg/kg/d, or GFT505 + OCA, mean ± SD)
1 | CC[C@H]1[C@@H](O)[C@@H]2[C@H](CC[C@]3(C)[C@@H]([C@H](C)CCOS(=O)(=O)[O-])CC[C@@H]23)[C@@]2(C)CC[C@@H](O)C[C@@H]12.[Na+] [INT-767] | does not show any antifibrotic activity | 13 | – | – | – | – | – | – | – | –
2 | CC[C@H]1[C@@H](O)[C@@H]2[C@H](CC[C@]3(C)[C@@H]([C@H](C)CCC(=O)O)CC[C@@H]23)[C@@]2(C)CC[C@@H](O)C[C@@H]12 [OCA, 6α-ethyl chenodeoxycholic acid] | – | – | 81% ± 28% | 110% ± 23% | 110% ± 43% | 109% ± 68% | 67% ± 23% | rather modest | does not attenuate fibrosis in a significant manner | 74% ± 45%

Reference: patent US20200054589A1, “COMBINATION OF A PPAR AGONIST WITH A FXR AGONIST” (Genfit, priority 2017, published 2020)
